# Reference: US6004790A, “Cyclomaltodextrin glucanotransferase variants” (priority 1995, dated 1999)
# Assays:
# Assay in all cases: Kinetic studies of β-cyclodextrin forming activity on Paselli SA2 with and without β-cyclodextrin (product inhibition)
# Assay type in all cases: biochemical
# [1] = target: T1, Bacillus circulans Strain 251 CGTase (cyclomaltodextrin glucanotransferase), wild type, SEQ ID NO: 70 (Niallia circulans, UniProt P43379); settings: inhibition by β-cyclodextrin (0.1 or 0.2 mM), substrate 0-5% Paselli SA2, 50° C., Hill equation fit
# T1 construct: a high extracellular production of wild-type enzyme and CGTase variants was obtained reproducibly; made in house; host or cells: Bacillus subtilis Strain DB104A (plasmid pDP66K)
# Experimental: (§1) β-cyclodextrin Forming Activity: β-cyclodextrin forming activity was determined using 5% Paselli™ SA2 (i.e. partially hydrolysed potato starch with an average degree of polymerization of 50, available from AVEBE, Foxhol, The Netherlands) as substrate and after incubation for 3 minutes at 50° C. 0.1-0.1 units of activity were used. The β-cyclodextrin formed was determined based on its ability to form a stable colorless inclusion complex with phenolphthalein. One unit of activity is defined as the amount of enzyme able to form 1 μmol of β-cyclodextrin per minute.
# (§2) Kinetic Studies: Kinetic studies on Paselli™ SA2 (AVEBE, Foxhol, The Netherlands) were performed by determination of the β-cyclodextrin forming activity of the enzyme on Paselli™ concentrations ranging from 0 to 5%, with and without addition of 0.1 or 0.2 mM of β-cyclodextrin. In these experiments approx. 0.6 μg/ml (0.15-0.18 units) of enzyme was used.
# (§3) The data collected from these kinetic and binding studies were fitted using the Hill equation, yielding Ymax and K50 values for the binding studies, and Vmax and K50 values for the kinetic studies. Ki values were calculated as follows. [formula] Results
# [2] = target: T2, Bacillus circulans Strain 251 CGTase variant W616A/W662A (Niallia circulans, UniProt P43379, W643A/W689A)
# T2 construct: a high extracellular production of wild-type enzyme and CGTase variants was obtained reproducibly; made in house; host or cells: Bacillus subtilis Strain DB104A (plasmid pDP66K)
# Experimental: as §1, §2, §3
# [3] = target: T3, Bacillus circulans Strain 251 CGTase variant Y633A (Niallia circulans, UniProt P43379, Y660A)
# T3 construct: a high extracellular production of wild-type enzyme and CGTase variants was obtained reproducibly; made in house; host or cells: Bacillus subtilis Strain DB104A (plasmid pDP66K)
# Experimental: as §1, §2, §3
# T1 sequence (P43379 28-713): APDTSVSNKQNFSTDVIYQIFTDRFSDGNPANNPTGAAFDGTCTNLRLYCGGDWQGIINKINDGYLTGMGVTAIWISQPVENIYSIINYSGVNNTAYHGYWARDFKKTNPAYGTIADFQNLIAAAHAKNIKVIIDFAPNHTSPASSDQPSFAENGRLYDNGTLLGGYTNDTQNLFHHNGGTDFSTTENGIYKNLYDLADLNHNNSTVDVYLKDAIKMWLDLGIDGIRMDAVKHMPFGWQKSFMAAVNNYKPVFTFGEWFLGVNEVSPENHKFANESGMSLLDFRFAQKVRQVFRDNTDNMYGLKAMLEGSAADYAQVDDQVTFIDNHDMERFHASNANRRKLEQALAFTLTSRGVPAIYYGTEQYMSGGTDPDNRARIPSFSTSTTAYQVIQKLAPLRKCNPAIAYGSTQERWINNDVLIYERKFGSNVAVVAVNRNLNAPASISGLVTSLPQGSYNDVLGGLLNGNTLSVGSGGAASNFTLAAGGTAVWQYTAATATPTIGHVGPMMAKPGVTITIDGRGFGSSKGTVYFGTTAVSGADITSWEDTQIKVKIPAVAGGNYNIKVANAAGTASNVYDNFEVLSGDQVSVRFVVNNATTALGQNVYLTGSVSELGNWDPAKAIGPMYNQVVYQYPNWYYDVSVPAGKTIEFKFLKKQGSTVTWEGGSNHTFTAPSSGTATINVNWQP
# T2 sequence (P43379 28-713 W643A/W689A): as the sequence (P43379 28-713) above, with W616A, W662A counted along it
# T3 sequence (P43379 28-713 Y660A): as the sequence (P43379 28-713) above, with Y633A counted along it
compound,measurement,setting,value
OC[C@H]1O[C@@H]2O[C@H]3[C@H](O)[C@@H](O)[C@@H](O[C@H]4[C@H](O)[C@@H](O)[C@@H](O[C@H]5[C@H](O)[C@@H](O)[C@@H](O[C@H]6[C@H](O)[C@@H](O)[C@@H](O[C@H]7[C@H](O)[C@@H](O)[C@@H](O[C@H]8[C@H](O)[C@@H](O)[C@@H](O[C@H]1[C@H](O)[C@H]2O)O[C@@H]8CO)O[C@@H]7CO)O[C@@H]6CO)O[C@@H]5CO)O[C@@H]4CO)O[C@@H]3CO [β-cyclodextrin],Ki,[1],380 µM
same,Ki,[2],1.11 mM
same,Ki,[3],210 µM
